ChEMBL document CHEMBL5335833, “Asperustins A-J: Austocystins with Immunosuppressive and Cytotoxic Activities from Aspergillus ustus NRRL 5856” (J Nat Prod, 2024)

Experiments:
Splenocyte [1] = test: Immunosuppressive activity in BALB/c mouse splenocytes assessed as reduction in ConA-induced mouse T-lymphocytes proliferation; format: functional, cell-based
Splenocyte [2] = test: Immunosuppressive activity in BALB/c mouse splenocytes assessed as reduction in […]-induced mouse B-lymphocyte proliferation; format: functional, cell-based
[3] = Cytotoxicity against mouse T-lymphocytes; format: toxicity, cell-based, T-cell
[4] = Cytotoxicity against mouse B-lymphocytes; format: toxicity, cell-based, B-cell
[5] = Selectivity index, ratio of CC50 for cytotoxicity against mouse T lymphocytes to IC50 for Immunosuppressive activity in BALB/c mouse splenocytes assessed as reduction in ConA-induced mouse T-lymphocytes proliferation; format: toxicity, cell-based
[6] = Selectivity index, ratio of CC50 for cytotoxicity against mouse T lymphocytes to IC50 for Immunosuppressive activity in BALB/c mouse splenocytes assessed as reduction in […]-induced mouse B-lymphocytes proliferation; format: toxicity, cell-based
Splenocyte [7] = test: Immunosuppressive activity in LPS-induced BALB/c mouse splenocyte assessed as reduction in IL-6 cytokine level incubated for 48 hrs by ELISA assay; format: functional, cell-based; conditions: dose 0.2-5 µM
MCF7 = test: Cytotoxicity against human MCF7 cells; format: functional, cell-based

| Structure (SMILES) | IC50 (Splenocyte [1]) [µM] | IC50 (Splenocyte [2]) | CC50 [3] [µM] | CC50 [4] [µM] | selectivity ratio [5] | selectivity ratio [6] | Activity (Splenocyte [7]) | IC50 (MCF7) [µM] |
| --- | --- | --- | --- | --- | --- | --- | --- | --- |
| CC(C)(O)CCc1ccc(O)c2c1OC1C=C3O[C@H]4OCC[C@H]4C3=C(O)C1C2=O (stereo partly drawn) | 1 | 3.6 µM | 5.2 | 5.2 | 5.2 | 1.4 | – | – |
| CO[C@H]1C[C@H]2C3=C(O)C4C(=O)c5c(O)ccc(CCC(C)(C)O)c5OC4C=C3O[C@H]2O1 (stereo partly drawn) | 1.1 | 7.9 µM | 15 | 15 | 14 | 1.9 | Dose-Dependent Effect | – |
| CC(C)(O)CCc1ccc(O)c2c(=O)c3c(O)c4c(cc3oc12)O[C@H]1OC=C[C@@]41O [AUSTOCYSTIN D] | 1.6 | 4 µM | 7.8 | 7.8 | 4.9 | 2 | – | 0.46 |
| CC(C)(O)C[C@H](O)c1ccc(O)c2c1OC1C=C3O[C@H]4OC=C[C@@]4(O)C3=C(O)C1C2=O (stereo partly drawn) | 0.93 | 12 µM | 16 | 16 | 17 | 1.3 | Dose-Dependent Effect | 0.46 |
| CO[C@@H]1C[C@H]2C3=C(O)C4C(=O)c5c(O)ccc(CCC(C)(C)O)c5OC4C=C3O[C@H]2O1 (stereo partly drawn) | 2.1 | 4.8 µM | 12 | 12 | 5.7 | 2.5 | – | – |
| COC1=C2C(=CC3Oc4cccc(O)c4C(=O)C13)O[C@H]1OC=C[C@@]21O (stereo partly drawn) | > 40 | > 40 µM | > 40 | > 40 | – | – | – | – |
| O=C1c2c(O)cccc2OC2C=C3O[C@H]4OC=C[C@@]4(O)C3=C(O)C12 (stereo partly drawn) | 9.4 | > 40 µM | > 40 | > 40 | > 4.2 | – | – | – |
| CO[C@@H]1C[C@@]2(O)C3=C(O)C4C(=O)c5c(O)ccc(CCC(C)(C)O)c5OC4C=C3O[C@H]2O1 (stereo partly drawn) | 1.3 | 3.8 µM | 7.7 | 7.7 | 5.9 | 2 | – | – |
| COC1=C2C(=CC3Oc4ccc(Cl)c(OC)c4C(=O)C13)O[C@H]1O[C@H](OC(C)=O)C[C@@H]21 (stereo partly drawn) | 16 | 20 µM | 28 | 28 | 1.8 | 1.4 | – | – |
| CO[C@H]1C[C@@]2(O)C3=C(O)C4C(=O)c5c(O)ccc(CCC(C)(C)O)c5OC4C=C3O[C@H]2O1 (stereo partly drawn) | 1.2 | 4.3 µM | 8.9 | 8.9 | 7.4 | 2.1 | – | – |
| COC1=C2C(=CC3Oc4c(OC)cc(Cl)c(OC)c4C(=O)C13)O[C@H]1O[C@@H](O)C[C@@H]21 (stereo partly drawn) | 11 | 10 µM | 31 | 31 | 2.8 | 3.1 | – | – |
| COC1=C2C(=CC3Oc4c(OC)cc(Cl)c(OC)c4C(=O)C13)O[C@H]1OC=C[C@@H]21 (stereo partly drawn) | 7.1 | 13 µM | 12 | 12 | 1.7 | 0.92 | – | – |
| COC1=C2C(=CC3Oc4ccc(Cl)c(OC)c4C(=O)C13)O[C@H]1O[C@@H](OC)C[C@@H]21 (stereo partly drawn) | 27 | 11 µM | > 40 | > 40 | > 1.5 | > 3.6 | – | – |
| CCCCC[C@H](OC)c1c(O)cc2c(c1O)C(=O)C1C(O)=CC(O)=CC1C2=O (stereo partly drawn) | > 40 | > 40 µM | > 40 | > 40 | – | – | – | – |
| COc1ccc(CCC(C)(C)O)c2c1C(=O)C1C(O)=C3C(=CC1O2)O[C@H]1OC=C[C@@]31O (stereo partly drawn) | 1 | 8.4 µM | 14 | 14 | 14 | 1.7 | Dose-Dependent Effect | 0.46 |
| CCCCC[C@H](O)c1c(O)cc2c(c1O)C(=O)C1C(O)=CC(O)=CC1C2=O (stereo partly drawn) | > 40 | 17 µM | > 40 | > 40 | – | > 2.4 | – | – |
| CC(C)(O)C[C@H](O)c1ccc(O)c2c1OC1C=C3O[C@H]4OC=C[C@H]4C3=C(O)C1C2=O (stereo partly drawn) | 1.2 | 7.5 µM | 8.1 | 8.1 | 6.8 | 1.1 | – | 0.46 |
| C[C@]12CCC[C@H](O1)c1c(cc3c(c1O)C(=O)c1c(O)cc(O)cc1C3=O)O2 | 4.8 | 22 µM | > 40 | > 40 | > 8.3 | > 1.8 | – | – |
| COc1c(Cl)ccc2c1C(=O)C1C(O)=C3C(=CC1O2)O[C@H]1OC=C[C@@]31O (stereo partly drawn) | > 40 | > 40 µM | > 40 | > 40 | – | – | – | – |
| COC1=C2C(=CC3Oc4c(CCC(C)(C)O)ccc(O)c4C(=O)C13)O[C@H]1OC=C[C@@H]21 (stereo partly drawn) | 4 | 5.8 µM | 17 | 17 | 4.3 | 2.9 | – | 0.46 |
| CC(C)=CCc1ccc(O)c2c1OC1C=C3O[C@H]4OC=C[C@@]4(O)C3=C(O)C1C2=O (stereo partly drawn) | 14 | 16 µM | 15 | 15 | 1.1 | 0.94 | – | – |
| COc1c(C)c2c(c(O)c1C/C=C(\C)CCC(=O)OCCN1CCOCC1)C(=O)OC2 [MYCOPHENOLATE MOFETIL] | – | 0.21 µg/mL | – | – | – | – | – | – |
| COc1cc(OC)c2c(c1)C(=O)C1C=C3O[C@@]4(C)CC[C@H](O)[C@H](O4)C3=C(O)C1C2=O (stereo partly drawn) | > 40 | 7 µM | > 40 | > 40 | – | > 5.7 | – | – |
| COC1=C2C(=CC3Oc4ccc(Cl)c(OC)c4C(=O)C13)O[C@H]1O[C@H](OC)C[C@@H]21 (stereo partly drawn) | 11 | 5.1 µM | > 40 | > 40 | > 3.6 | > 7.8 | – | – |
